# According to patent US20220072131A1, “Dihydroxyphenyl Neurotransmitter Compounds, Compositions And Methods” (Auspex Pharmaceuticals, Inc., priority 2013, published 2022):
# Legend:
# anesthetized rats = assay: Change of mean arterial blood pressure in anesthetized rats following intravenous administration; type: in vivo, rat; conditions: 2 mg/kg, in comparison to the same dose of L-threo-DOPS
# Procedure: Change of Mean Arterial Blood Pressure in Anesthetized Rats Following Intravenous Administration of 2 mg/kg L-Threo-2,3-Dideutero POPS in Comparison to the Same Dose of L-Threo-DOPS
# [1] = target: T1, monoamine oxidase-A (MAO-A) (Homo sapiens, UniProt P21397); assay: In vitro monoamine oxidase A degradation assay; type: in vitro ADME; conditions: incubated with MAO-A; compared to non-deuterated norepinephrine; disappearance of norepinephrine tracked
# T1 sequence (P21397 1-527): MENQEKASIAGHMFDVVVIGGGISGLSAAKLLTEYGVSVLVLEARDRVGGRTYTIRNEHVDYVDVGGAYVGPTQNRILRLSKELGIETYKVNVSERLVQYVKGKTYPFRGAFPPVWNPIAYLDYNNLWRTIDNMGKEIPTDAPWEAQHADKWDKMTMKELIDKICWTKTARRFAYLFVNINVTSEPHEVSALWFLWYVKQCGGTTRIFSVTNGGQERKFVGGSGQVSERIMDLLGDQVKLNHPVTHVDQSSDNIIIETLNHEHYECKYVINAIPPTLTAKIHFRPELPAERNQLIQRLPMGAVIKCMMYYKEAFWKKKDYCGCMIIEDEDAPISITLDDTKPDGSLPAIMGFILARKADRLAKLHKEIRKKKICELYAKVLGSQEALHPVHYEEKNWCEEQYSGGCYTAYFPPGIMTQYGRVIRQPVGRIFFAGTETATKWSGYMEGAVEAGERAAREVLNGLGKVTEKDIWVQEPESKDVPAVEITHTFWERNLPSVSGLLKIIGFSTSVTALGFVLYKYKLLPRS
# Procedure: Norepinephrine and d6-norepinephrine were incubated with monoamine oxidase-A (MAO-A).
# The appearance of 3,4-dihydroxyphenylglycolaldehyde and the disappearance of norepinephrine were tracked. Compared to non-deuterated norepinephrine, d6-norepinephrine was associated with about a 5-fold decrease in digestion by MAO-A and about a 75% decrease in 3,4-dihydroxyphenylglycolaldehyde production.
# The assay method is a batch alumina extraction followed by liquid chromatography with electrochemical detection. The post-column electrodes are arranged in series, with an oxidizing potential at the first electrode and reducing potential at the third. This series arrangement of flow-through electrodes reduces the solvent front substantially and improves the sensitivity and specificity for detecting reversibly oxidized species such as catechols. 3,4-Dihydroxyphenylglycolaldehyde is identified by a broad, short peak within the solvent front.
decrease in digestion by MAO-A [1] [fold],Structure (SMILES),Change of mean arterial blood pressure (anesthetized rats)
,"[2H]C(N)(C(=O)O)C([2H])(O)c1ccc(O)c(O)c1 [L-threo-2,3-dideutero DOPS]",enhanced and prolonged increase
~5,[2H]c1c([2H])c([C@@]([2H])(O)C([2H])([2H])N)c([2H])c(O)c1O [d6-norepinephrine],
